Results published in ChEMBL document CHEMBL5104140, “Bicyclic pyrimidine compounds as potent IRAK4 inhibitors” (Bioorg Med Chem Lett, 2022).

What was measured:
[1] = tested on: THP-1; experiment: Antiinflammatory activity against human THP-1 cells assessed as inhibition of LPS induced IL-23 production; format: functional, cell-based
[2] = molecular target: T1, Interleukin-1 receptor-associated kinase 4 (Homo sapiens, UniProt Q9NWZ3); experiment: Inhibition of IRAK4 (unknown origin)
T1 sequence (Q9NWZ3 whole entry): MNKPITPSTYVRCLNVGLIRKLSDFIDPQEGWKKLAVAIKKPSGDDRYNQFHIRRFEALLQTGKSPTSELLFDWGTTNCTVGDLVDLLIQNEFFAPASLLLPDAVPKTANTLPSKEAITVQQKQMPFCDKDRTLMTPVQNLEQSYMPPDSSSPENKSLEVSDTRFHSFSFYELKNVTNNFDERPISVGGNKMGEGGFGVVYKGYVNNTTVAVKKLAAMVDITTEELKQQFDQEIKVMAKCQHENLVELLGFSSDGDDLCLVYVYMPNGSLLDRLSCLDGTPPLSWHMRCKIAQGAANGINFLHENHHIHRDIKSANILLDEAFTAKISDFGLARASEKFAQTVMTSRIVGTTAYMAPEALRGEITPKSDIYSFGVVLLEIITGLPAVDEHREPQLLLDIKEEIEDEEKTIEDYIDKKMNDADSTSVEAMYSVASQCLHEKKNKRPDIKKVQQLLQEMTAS

[3] = Antiinflammatory activity against human dendritic cells assessed as inhibition of LPS induced IL-23 production; format: functional, cell-based; details: Dendritic cell
[4] = tested on: PAD; experiment: Induction of PAD activity against human A549 cells; format: toxicity, cell-based
[5] = Clearance in rat at 1 mg/kg, iv; format: ADME, organism-based; details: in vivo
[6] = Oral bioavailability in rat at 5 mg/kg; format: ADME, organism-based; details: in vivo
[7] = tested on: Mus musculus; experiment: Antiinflammatory activity against mouse assessed as inhibition of IL-1 beta-stimulated IL-6 expression at 75 mg/kg; format: functional
[8] = Plasma concentration in mouse at 75 mg/kg measured after 0.5 hrs; format: ADME, organism-based
[9] = Drug metabolism in rat liver microsomes assessed as oxidative metabolite formation; format: ADME, Microsome
[10] = tested on: Mus musculus; experiment: Antiinflammatory activity against mouse assessed as inhibition of IL-1 beta-stimulated IL-6 expression at 45 mg/kg; format: functional
[11] = tested on: Mus musculus; experiment: Antiinflammatory activity against mouse assessed as inhibition of IL-1 beta-stimulated IL-6 expression at 15 mg/kg; format: functional
[12] = tested on: Mus musculus; experiment: Antiinflammatory activity against mouse assessed as inhibition of IL-1 beta-stimulated IL-6 expression at 5 mg/kg; format: functional
[13] = tested on: Rattus norvegicus; experiment: Antiinflammatory activity against collagen-induced arthritis rat model assessed as inhibition of disease progression at 30 mg/kg, bid; format: functional
[14] = tested on: Rattus norvegicus; experiment: Antiinflammatory activity against collagen-induced arthritis rat model assessed as inhibition of disease progression at 5 mg/kg, bid; format: functional
[15] = tested on: Rattus norvegicus; experiment: Antiinflammatory activity against collagen-induced arthritis rat model assessed as inhibition of disease progression at 10 mg/kg, bid; format: functional
[16] = tested on: Rattus norvegicus; experiment: Antiinflammatory activity against collagen-induced arthritis rat model assessed as inhibition of disease progression at 20 mg/kg, bid; format: functional

Row | IC50 [1] | IC50 [2] | IC50 [3] | clearance [5] | bioavailability [6] | concentration at 0.5 h [8] | Drug metabolism [9] | SMILES | IC50 [4] | inhibition in vivo at 75 mg/kg [7] | inhibition in vivo at 45 mg/kg [10] | inhibition in vivo at 15 mg/kg [11] | inhibition in vivo at 5 mg/kg [12] | inhibition in vivo at 30 mg/kg [13] | inhibition in vivo at 5 mg/kg [14] | inhibition in vivo at 10 mg/kg [15] | inhibition in vivo at 20 mg/kg [16]
1 | 220 nM | 9 nM | 260 nM | 10 mL/min/kg | 37% |  |  | NC(=O)[C@@H]1[C@H](Nc2nc(Nc3cc(F)cc(N4CCOCC4)c3)nc3ccn(C(F)F)c23)[C@H]2C=C[C@@H]1C2 | 1000 nM | 0% |  |  |  |  |  |  | 
2 | 110 nM | 12 nM | 230 nM | 40 mL/min/kg | 24% |  |  | NC(=O)[C@@H]1[C@H](Nc2nc(Nc3cc(F)cc(N4CCOCC4)c3)nc3ccsc23)[C@H]2C=C[C@@H]1C2 | 2300 nM | 30% |  |  |  |  |  |  | 
3 | 130 nM | 4 nM | 260 nM | 58 mL/min/kg | 1% |  |  | Cn1ccc2nc(Nc3cccc(C(=O)N4CCCC4)c3)nc(N[C@H]3[C@@H](C(N)=O)[C@@H]4C=C[C@H]3C4)c21 | 9400 nM |  |  |  |  |  |  |  | 
4 | 80 nM | 3 nM | 90 nM | 63 mL/min/kg | 27% | 65 ng/mL |  | Cc1n[nH]c2nc(Nc3cccc(C(=O)N4CCCC4)c3)nc(N[C@H]3[C@@H](C(N)=O)[C@@H]4C=C[C@H]3C4)c12 | 1600 nM | 0% |  |  |  |  |  |  | 
5 | 90 nM |  | 40 nM | 113 mL/min/kg |  |  | Metabolite_Detected | NC(=O)[C@@H]1[C@H](Nc2nc(Nc3cccc(C(=O)N4CCCC4)c3)nc3ccsc23)[C@H]2C=C[C@@H]1C2 | 3800 nM |  |  |  |  |  |  |  | 
6 | 130 nM | 2 nM | 40 nM | 88 mL/min/kg | 8% | 410 ng/mL |  | NC(=O)[C@@H]1[C@H](Nc2nc(Nc3cccc(C(=O)N4CCCC4)c3)nc3ccn(C(F)F)c23)[C@H]2C=C[C@@H]1C2 | 1500 nM | 0% |  |  |  |  |  |  | 
7 | 230 nM | 4.3 nM | 220 nM | 6 mL/min/kg | 43% |  |  | CC(C)n1ncc2ccc(Nc3nc(N[C@H]4[C@@H](C(N)=O)[C@@H]5C=C[C@H]4C5)c4c(ccn4C(F)F)n3)cc21 | 820 nM | 64% | 37% | 16% | 9% | 100% |  |  | 
8 | 250 nM | 15 nM | 140 nM | 53 mL/min/kg | 38% |  |  | NC(=O)[C@@H]1[C@H](Nc2nc(Nc3cc(F)cc(N4CCOCC4)c3)nc3ccoc23)[C@H]2C=C[C@@H]1C2 | 3200 nM | 65% |  |  |  | 100% | 30% | 56% | 97%
